Drawing on US11505548B2, “Heterocyclic compounds and their use for treatment of helminthic infections and diseases” (Celgene Corporation, priority 2019, dated 2022), this text covers IC50 for 3 compounds.

The subject of the test is microfilariae of Dirofilaria immitis. The test can be described thus: Dirofilaria immitis, Microfilaria (DiMF) Assay. Particulars: read-out: D. immitis activity level (IC50 or MED). The format is cell-based. An outline of the steps:
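D. immitis microfilariae were incubated in medium with DMSO-diluted compounds for about 72 h. Survival or paralysis was scored subjectively under the microscope. Values are Minimum Effective Dose (MED).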
For `CC(=O)N(C)c1cc(C(F)(F)F)cnc1Nc1nc(-c2cc3c(cn2)N(C(C)C)CC3)ns1` [Compound 273, N-(2-(3-(1-isopropyl-2,3-dihydro-1H-pyrrolo[2,3-c]pyridin-5-yl)-1,2,4-thiadiazol-5-ylamino)-5-(trifluoromethyl)pyridin-3-yl)-N-methylacetamide], the IC50 (as a rule, the midpoint of a concentration-inhibition curve) was less than 200 nM.
The same measure for `Cc1cnc(Nc2nc(-c3cc(OC4COC4)ccn3)ns2)c(C(F)(F)F)c1` [Compound 275, N-(5-methyl-3-(trifluoromethyl)pyridin-2-yl)-3-(4-(oxetan-3-yloxy)pyridin-2-yl)-1,2,4-thiadiazol-5-amine]: less than 200 nM; for `COC(=O)c1cccnc1Nc1nc(-c2ccc(OC(C)C)cn2)ns1` [Compound 276, methyl 2-(3-(5-isopropoxy-pyridin-2-yl)-1,2,4-thiadiazol-5-ylamino) nicotinate]: 500 to 5000 nM.
